Tests used:
[1] = test system: Human keratinocytes (HaCaT); experiment: Hyaluronic acid synthesis enhancement, Quantikine ELISA Hyaluronan; assay type: cell-based; settings: 1 ppm, 72 hours, vs negative control (DMEM containing 0% serum)
Description: Human keratinocytes (HaCaT) were treated with each sample for 72 hours. Thereafter, a hyaluronic acid synthesis rate was derived by measuring hyaluronic acid using R&D systems' Quantikine ELISA Hyaluronan. The skin moisturizing ability of the sample was expressed as an increase rate (%) of hyaluronic acid synthesis, which was calculated and quantified in comparison to a negative control group (treated with DMEM containing 0% serum).
The calculation formula of the increase rate of hyaluronic acid synthesis, each sample, and the results thereof are shown in Table 6 below.
Increase rate of hyaluronic acid synthesis (%)=(Hyaluronic acid synthesis rate of Sample−Hyaluronic acid synthesis rate of Negative control)/Hyaluronic acid synthesis rate of Negative control

Human dermal fibroblasts = experiment: Collagen synthesis enhancement, procollagen type I C-peptide (PIP) EIA kit; assay type: cell-based; settings: 10 ppb, 48 hours, vs negative control (DMEM containing 0% serum)
Description: Human dermal fibroblasts were treated with each sample for 48 hours. Thereafter, a collagen synthesis rate was measured by detecting collagen using a method of a procollagen type I C-peptide (PIP) EIA kit. The collagen synthesis efficiency of the sample was expressed as an increase rate (%) of collagen synthesis, which was calculated and quantified in comparison to a negative control group (DMEM containing 0% serum).
Increase rate of collagen synthesis (%)=(Collagen synthesis rate of Sample−Collagen synthesis rate of Negative control)/Collagen synthesis rate of Negative control

Molecule	Increase rate of hyaluronic acid synthesis [1] [%]	Increase rate of collagen synthesis (Human dermal fibroblasts) [%]
CC1=C(/C=C/C(C)=C/C=C/C(C)=C/C(=O)O)C(C)(C)CCC1 [Retinoic acid]	13.8	
TGF-β		15.2
